{
  "source": "paper PMC6931124",
  "about": "“NPY1R-targeted peptide-mediated delivery of a dual PPARα/γ agonist to adipocytes enhances adipogenesis and prevents diabetes progression” (Molecular Metabolism, 2019)",
  "origin": "cited, not measured here",
  "tested_on": "12-week-old db/db mice",
  "conditions": "ref [100], cited from earlier work",
  "description": "In contradiction to previous tesa in vivo studies, no major improvements in hyperglycemia (serum HbA1C) and serum insulin levels were detected in the treated mice compared to the untreated animals. […] No major changes in the total serum glucose occurred and the insulin levels remained unchanged as the mice adapted to the amount of glucose in their blood. An additional ...",
  "data": [
    {"smiles": "COc1ccc(OC(=O)N(CC(=O)O)Cc2ccc(OCCc3nc(-c4ccccc4)oc3C)cc2)cc1", "note": "[muraglitazar]", "values": [
      {"measurement": "control of glucose and insulin levels, 2–4 weeks", "setting": "2–4 weeks", "value": "treatment for 2–4 weeks did"},
      {"measurement": "control of glucose and insulin levels, one week", "setting": "one week", "value": "did not lead to significant effects"}
    ]}
  ]
}
